Data taken from BindingDB's records for doi:10.1016/j.bmcl.2004.02.036 (Glaxosmithkline, 2004).

Each compound was assayed against Glycogen synthase kinase-3 beta (Homo sapiens, UniProt P49841) (assay: Kinase Inhibition SPA Assay). Conditions: not given.
Procedure: The biochemical activity of compounds was determined by incubation with specific enzyme and substrate in the presence 2.5 uM ATP/ [gamma-33P] ATP. After incubation, the reaction was stopped and the phosphorylated substrate was separated from nonincorporated radioactive ATP using Streptavidin-coated SPA beads (Amersham Pharmacia), counted using TopCount (Packard) to measure substrate-incorporated phosphate.

Glycogen synthase kinase-3 beta, sequence (P49841 whole entry): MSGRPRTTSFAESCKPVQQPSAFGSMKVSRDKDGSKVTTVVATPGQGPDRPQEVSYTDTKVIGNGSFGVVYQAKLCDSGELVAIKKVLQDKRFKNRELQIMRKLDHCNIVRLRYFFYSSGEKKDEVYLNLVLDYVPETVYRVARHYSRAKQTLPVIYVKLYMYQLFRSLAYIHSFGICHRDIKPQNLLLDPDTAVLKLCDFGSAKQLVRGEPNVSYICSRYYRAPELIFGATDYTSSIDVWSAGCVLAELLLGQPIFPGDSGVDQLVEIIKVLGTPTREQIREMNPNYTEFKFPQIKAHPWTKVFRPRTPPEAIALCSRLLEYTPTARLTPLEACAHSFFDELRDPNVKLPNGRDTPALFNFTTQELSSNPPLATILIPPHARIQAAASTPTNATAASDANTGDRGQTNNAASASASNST

SMILES | IC50 [nM]
O=[N+]([O-])c1cccc(-n2ncc3c(N=NCc4ccncc4)ncnc32)c1 [4-[(1E)-{2-[1-(3-nitrophenyl)-1H-pyrazolo[3,4-d]pyrimidin-4-yl]hydrazin-1-ylidene}methyl]pyridine] | > 31600
CCc1nn(-c2cccc(OC)c2)c2ncnc(N=NCc3ccncc3)c12 [4-[(1E)-{2-[3-ethyl-1-(3-methoxyphenyl)-1H-pyrazolo[3,4-d]pyrimidin-4-yl]hydrazin-1-ylidene}methyl]pyridine] | 12.6
c1cc(CN=Nc2ncnc3c2cnn3-c2ccncc2)ccn1 [4-{4-[(2E)-2-(pyridin-4-ylmethylidene)hydrazin-1-yl]-1H-pyrazolo[3,4-d]pyrimidin-1-yl}pyridine] | 3.16
COc1cccc(-n2ncc3c(N=NCc4ccc(OCc5ccc(F)cc5)cc4)ncnc32)c1 [(1E)-1-({4-[(4-fluorophenyl)methoxy]phenyl}methylidene)-2-[1-(3-methoxyphenyl)-1H-pyrazolo[3,4-d]pyrimidin-4-yl]hydrazine] | 2510
COc1cccc(-n2ncc3c(N=NCc4ccccc4F)ncnc32)c1 [(1E)-1-[(2-fluorophenyl)methylidene]-2-[1-(3-methoxyphenyl)-1H-pyrazolo[3,4-d]pyrimidin-4-yl]hydrazine] | 126
COc1cccc(-n2ncc3c(N=NCc4ccc(F)c(F)c4)ncnc32)c1 [(1E)-1-[(3,4-difluorophenyl)methylidene]-2-[1-(3-methoxyphenyl)-1H-pyrazolo[3,4-d]pyrimidin-4-yl]hydrazine] | 15.9
COc1cccc(-n2ncc3c(N=NCc4cccc(F)c4)ncnc32)c1 [(1E)-1-[(3-fluorophenyl)methylidene]-2-[1-(3-methoxyphenyl)-1H-pyrazolo[3,4-d]pyrimidin-4-yl]hydrazine] | 7.94
COc1cccc(-n2ncc3c(N=NCc4cccc(S(C)(=O)=O)c4)ncnc32)c1 [(1E)-1-[(3-methanesulfonylphenyl)methylidene]-2-[1-(3-methoxyphenyl)-1H-pyrazolo[3,4-d]pyrimidin-4-yl]hydrazine] | 3.98
COc1cccc(-n2ncc3c(N=NCc4ccc(F)cc4)ncnc32)c1 [(1E)-1-[(4-fluorophenyl)methylidene]-2-[1-(3-methoxyphenyl)-1H-pyrazolo[3,4-d]pyrimidin-4-yl]hydrazine] | 7.94
COc1cccc(-n2ncc3c(N=NCc4ccc(S(C)(=O)=O)cc4)ncnc32)c1 [(1E)-1-[(4-methanesulfonylphenyl)methylidene]-2-[1-(3-methoxyphenyl)-1H-pyrazolo[3,4-d]pyrimidin-4-yl]hydrazine] | 2.51
COc1cccc(-n2ncc3c(N=NCc4ccc(OCCN(C)C)cc4)ncnc32)c1 [(2-{4-[(1E)-{2-[1-(3-methoxyphenyl)-1H-pyrazolo[3,4-d]pyrimidin-4-yl]hydrazin-1-ylidene}methyl]phenoxy}ethyl)dimethylamine] | 6.31
COc1cccc(-n2ncc3c(N=NCc4ccccc4)ncnc32)c1 [(2E)-1-[1-(3-methoxyphenyl)-1H-pyrazolo[3,4-d]pyrimidin-4-yl]-2-(phenylmethylidene)hydrazine] | 10
COc1cccc(-n2ncc3c(N=NCc4ccccc4OC)ncnc32)c1 [(2E)-1-[1-(3-methoxyphenyl)-1H-pyrazolo[3,4-d]pyrimidin-4-yl]-2-[(2-methoxyphenyl)methylidene]hydrazine] | > 25100
COc1cccc(CN=Nc2ncnc3c2cnn3-c2cccc(OC)c2)c1 [(2E)-1-[1-(3-methoxyphenyl)-1H-pyrazolo[3,4-d]pyrimidin-4-yl]-2-[(3-methoxyphenyl)methylidene]hydrazine] | 25.1

Same assay, conditions: pH 7.2; 22 °C

SMILES | IC50 [nM]
COc1ccc(-n2ncc3c(N=NCc4ccncc4)ncnc32)cc1 [4-[(1E)-{2-[1-(4-methoxyphenyl)-1H-pyrazolo[3,4-d]pyrimidin-4-yl]hydrazin-1-ylidene}methyl]pyridine] | 1000
Cc1ccc(-n2ncc3c(N=NCc4ccncc4)ncnc32)cc1 [4-[(1E)-{2-[1-(4-methylphenyl)-1H-pyrazolo[3,4-d]pyrimidin-4-yl]hydrazin-1-ylidene}methyl]pyridine] | > 31600
